# Reference: patent US12527785B2, “Renin-angiotensin-aldosterone system (RAAS) inhibitors in the treatment of pancreatic ductal carcinoma” (OCHSNER CLINIC FOUNDATION, priority 2023, dated 2026)
# Key:
# PANC-1 cells = assay: WST1 cell proliferation assay, PANC-1 cells; type: cell-based, human
# Experimental: (§1) PDA cell line (PANC-1 or HS766T) or patient cancer cells (PaCa9) were trypsinized with 1% trypsin in Hank's Balanced Salt Solution (HBSS), counted, washed, and resuspended in serum free AIM media (ThermoFisher Scientific, Waltham, MA) or complete Dulbecco's Modified Eagle Medium (DMEM) supplemented with 10% fetal bovine serum, […], 100 U/ml of penicillin G, and […] of streptomycin. Cells at a concentration of 2-4×10^4 cells/well in 100 μl culture medium were seeded in triplicate in 96 well plates, then cultured in a humidified incubator at 37° C. and 5% CO2. On the next day, cell supernatant was discarded and compounds (e.g., drugs) of the present disclosure in 200 μl medium were added with the concentrations indicated in the following Examples. After 72 hours of culture, cell proliferation reagent WST1 (20 μl/well, Sigma Aldrich Inc, St. Louis, MO) were added and plates were read using an ELISA reader at 2 hours and 4 hours under the wavelength of 450 nm. The measured absorbance (OD value) was recorded and graphed and statistically analyzed using GraphPad Prism 8, t-test, or t-test with Bonferroni correction.
# HS766T cells = assay: WST1 cell proliferation assay, HS766T cells; type: cell-based
# Experimental: as §1
# [1] = tested on: PaCa-9 PDAC patient tumor cells; assay: WST1 cell proliferation assay, PaCa-9 PDAC patient tumor cells; type: cell-based, human; settings: for cell proliferation, WST1 absorbance (OD value, 450 nm), mean: 10% FCS-DMEM
# Experimental: as §1, with “Louis, MO) were added and plates were read using an ELISA reader at 2 hours and 4 hours under the wavelength of 450 nm.” left out
# [2] = tested on: PANC-1 tumor orthotopic xenograft; assay: PANC-1 tumor orthotopic xenograft mouse model (BLI tumor burden, tumor weight); type: in vivo; settings: four weeks; for Tumor weight, % of control / Tumor weight, mean: Table 19; for Tumor weight, mean: control 0.425; for BLI data, mean: control 3.003
# Excerpt: Human PDCA cell line PANC-1 was transduced with pre-made lentiviral vectors encoding luciferase (firefly)/red fluorescent protein (RFP) to enable monitoring of the growth of primary tumor and metastasis. […] For in vivo experiments, Nonobese diabetic/severe combined immunodeficiencyNOD-SCID mice (Jackson Labs, Bar Harbor, ME, or inhouse breeding) were first brought under anesthesia with isoflurane (2.5% in 100% oxygen, 1 L/min) in an induction chamber and maintained under adequate anesthesia (isoflurane inhalation) while being laid on a warming pad throughout the surgical procedure. For tumor generation, 5×10^4 luciferase-tagged PANC-1 cells were co-inoculated with 3×10^5 lymph node stromal cell (LNSC) analog HK cells. The mice received a 0.75-1.2 cm long incision (on the left side of the body slightly medial to the splenic silhouette) to exteriorize the spleen and pancreas. While gently retracting the pancreas laterally, a 30 G needle was inserted along the length of the pancreas from the tail to the pancreatic head region. Then, 10 μl of cell suspension was injected as the needle was withdrawn to the mid-body of the pancreas. The needle was removed, and the area was inspected for leakage and bleeding. The pancreas and spleen were internalized with forceps and the abdominal muscle layer was closed with interrupted stitches (3-0 silk suture). The overlying skin was closed with a second set of interrupted stitches. Buprenorphine SR-LAB was injected subcutaneously immediately after the surgery for pain relief.
# After the surgery, tumor growth and metastatic tumor burden were monitored and assessed weekly for luciferase activity by bioluminescence imaging (BLI) using Lago Imaging System (Spectral Instruments Imaging, Tucson, AZ). Mice were anesthetized using isoflurane for all imaging procedures. Mice were administered intraperitoneally with luciferin (10 mg/kg) and imaged in 10-20 minutes for maximum luciferase signal plateau. Images were analyzed using Aura Imaging software. Once the BLI levels of xenografted tumor reached 5×10^8 photons (around 7-9 weeks post PANC-1 cell injection), the mice were grouped based on their BLI level and compounds (e.g., drugs) of the present disclosure were given by gavage daily to each group for 4 weeks. […] Upon sacrifice after 4 weeks of treatment, primary tumors and mouse organs were harvested, weighed, imaged, and formalin-fixed for (hematoxylin and eosin) H&E and immunohistochemistry staining. Data was statistically analyzed using t-test, or t-test with Bonferroni correction.
# [3] = tested on: PDCA cells (PANC-1, HS766T, PaCa9); assay: In vitro PDCA cell proliferation (WST1), summary statements over the cell lines tested; type: cell-based
# Experimental: as §1
# [4] = mouse, in vivo; cited from earlier work
# [5] = 0.1 mg/kg by subcutaneous injection; cited from earlier work
# [6] = Candesartan Cilexitil (60 mg/kg)
smiles,measurement,setting,value
CCCCc1nc(Cl)c(CO)n1Cc1ccc(-c2ccccc2-c2nn[nH]n2)cc1 [Losartan],"cell proliferation, WST1 absorbance (OD value, 450 nm), mean","PANC-1 cells; Losartan 100 μM, Table 1, 2 h, 10% FCS-DMEM, control 3.618",2.507
same,"cell proliferation, WST1 absorbance (OD value, 450 nm), mean","PANC-1 cells; Losartan 100 μM, Table 5A, 10% FCS-DMEM, 2×10^4 cells per well, Medium/DMSO 3.348",3.699
same,"cell proliferation, WST1 absorbance (OD value, 450 nm), mean","HS766T cells; Losartan 100 μM, Table 2, 2 h, 10% FCS-DMEM, control 3.214",2.992
same,"cell proliferation, WST1 absorbance (OD value, 450 nm), mean","HS766T cells; Losartan 100 μM, Table 6A, 10% FCS-DMEM, 2×10^4 cells per well, control 3.339",3.182
same,"cell proliferation, WST1 absorbance (OD value, 450 nm), mean","[1]; Losartan 100 μM, Table 3, 1 h, Medium/DMSO 3.571",3.392
same,"cell proliferation, WST1 absorbance (OD value, 450 nm), mean","[1]; Losartan 100 μM, Table 7A, 2×10^4 cells per well, control 3.535",3.161
same,"BLI data, % of control",[2]; Losartan (60 mg/kg),73%
same,"Tumor weight, % of control",[2]; Losartan (60 mg/kg),87%
same,"Tumor weight, mean",[2]; Losartan (60 mg/kg),0.3691 g
same,"BLI data, mean",[2]; Losartan (60 mg/kg),2.199
same,Change in cellular proliferation,[3]; losartan 100 μM,no statistical change in cellular proliferation
CCOc1nc2cccc(C(=O)OC(C)OC(=O)OC3CCCCC3)c2n1Cc1ccc(-c2ccccc2-c2nnn[nH]2)cc1 (stereo not shown) [Candesartan Cilexitil],"Tumor weight, % of control",[2]; [6],38%
same,"Tumor weight, mean",[2]; [6],0.163 g
same,Safety of oral administration to mice,[4],safely
Cc1cc(Cn2cnc3c2C[C@@H](C(=O)O)N(C(=O)C(c2ccccc2)c2ccccc2)C3)ccc1N(C)C [PD123319],"cell proliferation, WST1 absorbance (OD value, 450 nm), mean","PANC-1 cells; 10 μM, Table 8, 2 h, DMEM-10% FCS, control 3.922",2.724
same,"cell proliferation, WST1 absorbance (OD value, 450 nm), mean","PANC-1 cells; 10 μM, Table 10, 2 h, serum free media, control 3.443",2.120
same,"cell proliferation, WST1 absorbance (OD value, 450 nm), mean","PANC-1 cells; 10 μM, Table 12, 2 h, 10% FCS DMEM, N = 6, control 3.37",2.823
same,"cell proliferation, WST1 absorbance (OD value, 450 nm), mean","PANC-1 cells; 10 μM, Table 14, 2 h, serum free media, N = 6, control 1.208",1.048
same,"cell proliferation, WST1 absorbance (OD value, 450 nm), mean","PANC-1 cells; 30 μM, Table 8, 2 h, DMEM-10% FCS, control 3.922",2.60
same,"cell proliferation, WST1 absorbance (OD value, 450 nm), mean","PANC-1 cells; 30 μM, Table 10, 2 h, serum free media, control 3.443",1.970
same,"cell proliferation, WST1 absorbance (OD value, 450 nm), mean","PANC-1 cells; 30 μM, Table 12, 2 h, 10% FCS DMEM, N = 6, control 3.37",2.854
same,"cell proliferation, WST1 absorbance (OD value, 450 nm), mean","PANC-1 cells; 30 μM, Table 14, 2 h, serum free media, N = 6, control 1.208",0.7668
same,"cell proliferation, WST1 absorbance (OD value, 450 nm), mean","PANC-1 cells; 50 μM, Table 8, 2 h, DMEM-10% FCS, N = 1, control 3.922",1.951
same,"cell proliferation, WST1 absorbance (OD value, 450 nm), mean","PANC-1 cells; 50 μM, Table 10, 2 h, serum free media, control 3.443",2.146
same,"cell proliferation, WST1 absorbance (OD value, 450 nm), mean","PANC-1 cells; 50 μM, Table 12, 2 h, 10% FCS DMEM, N = 6, control 3.37",2.873
same,"cell proliferation, WST1 absorbance (OD value, 450 nm), mean","PANC-1 cells; 50 μM, Table 14, 2 h, serum free media, N = 6, control 1.208",0.728
same,"cell proliferation, WST1 absorbance (OD value, 450 nm), mean","HS766T cells; 10 μM, Table 9, 2 h, DMEM-10% FCS, control 2.025",1.336
same,"cell proliferation, WST1 absorbance (OD value, 450 nm), mean","HS766T cells; 10 μM, Table 11, 2 h, serum free media, control 2.0695",1.24
same,"cell proliferation, WST1 absorbance (OD value, 450 nm), mean","HS766T cells; 10 μM, Table 13, 2 h, 10% FCS DMEM, control 2.913",2.895
same,"cell proliferation, WST1 absorbance (OD value, 450 nm), mean","HS766T cells; 10 μM, Table 15, 2 h, serum free media, N = 6, control 1.906",1.708
same,"cell proliferation, WST1 absorbance (OD value, 450 nm), mean","HS766T cells; 30 μM, Table 11, 2 h, serum free media, control 2.0695",1.397
same,"cell proliferation, WST1 absorbance (OD value, 450 nm), mean","HS766T cells; 30 μM, Table 13, 2 h, 10% FCS DMEM, control 2.913",2.555
same,"cell proliferation, WST1 absorbance (OD value, 450 nm), mean","HS766T cells; 30 μM, Table 15, 2 h, serum free media, N = 6, control 1.906",1.56
same,"cell proliferation, WST1 absorbance (OD value, 450 nm), mean","HS766T cells; 50 μM, Table 11, 2 h, serum free media, control 2.0695",1.235
same,"cell proliferation, WST1 absorbance (OD value, 450 nm), mean","HS766T cells; 50 μM, Table 13, 2 h, 10% FCS DMEM, control 2.913",1.886
same,"cell proliferation, WST1 absorbance (OD value, 450 nm), mean","HS766T cells; 50 μM, Table 15, 2 h, serum free media, N = 6, control 1.906",1.154
same,Effective in inhibiting PDCA cell proliferation in vitro,"[3]; 10 μM, 30 μM, and 50 μM, presence or absence of serum",effective
same,Activity in rats,[5],active
CC(=O)S[C@@H]1CC2=CC(=O)CC[C@]2(C)[C@H]2CC[C@@]3(C)[C@@H](CC[C@@]34CCC(=O)O4)[C@H]12 [Spironolactone],"Tumor weight, % of control",[2]; Spironolactone (100 mg/kg),69%
same,"Tumor weight, mean",[2]; Spironolactone (100 mg/kg),0.292 g
CCOc1nc2cccc(C(=O)O)c2n1Cc1ccc(-c2ccccc2-c2nnn[nH]2)cc1 [Candesartan],"Effective (statistically significant, p<0.05, decrease in cell proliferation by WST1 assay)",PANC-1 cells; 20 μM,effective
same,"cell proliferation, WST1 absorbance (OD value, 450 nm), mean","PANC-1 cells; Candesartan 20 μM, Table 5A, 10% FCS-DMEM, 2×10^4 cells per well, Medium/DMSO 3.348",0.612
same,"Effective (statistically significant, p<0.05, decrease in cell proliferation by WST1 assay)",HS766T cells; 20 μM,effective
same,"cell proliferation, WST1 absorbance (OD value, 450 nm), mean","HS766T cells; Candesartan 10 μM, Table 2, 2 h, 10% FCS-DMEM, control 3.214",2.856
same,"cell proliferation, WST1 absorbance (OD value, 450 nm), mean","HS766T cells; Candesartan 20 μM, Table 6A, 10% FCS-DMEM, 2×10^4 cells per well, control 3.339",0.620
same,"Effective (statistically significant, p<0.05, decrease in cell proliferation by WST1 assay)",[1]; 20 μM,effective
same,"cell proliferation, WST1 absorbance (OD value, 450 nm), mean","[1]; Candesartan 10 μM, Table 3, 1 h, Medium/DMSO 3.571",3.694
same,"cell proliferation, WST1 absorbance (OD value, 450 nm), mean","[1]; Candesartan 20 μM, Table 7A, 2×10^4 cells per well, control 3.535",0.464
same,"BLI data, % of control",[2]; Candesartan (30 mg/kg),67%
same,"BLI data, mean",[2]; Candesartan (30 mg/kg),2.016
same,Minimum effective dose (concentration) in vitro,"[3]; PANC-1, Hs766T and PaCa9 cells",~20 µM
same,Change in cellular proliferation,[3]; candesartan 10 μM,no statistical change in cellular proliferation
